Assay results published in PubChem BioAssay (NCI).
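48-hour exposure; five concentrations; linearly interpolated endpoints. GI50 is the concentration that inhibits growth by half. Definition used: TGI = concentration required for complete inhibition of growth.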

Legend:
Experiment in all cases: growth of human tumour cells (NCI), 48 h
786-0 renal = test system: 786-0 renal
HCT-15 colon = test system: HCT-15 colon
K-562 leukemia = test system: K-562 leukemia
KM12 colon = test system: KM12 colon
MALME-3M melanoma = test system: MALME-3M melanoma
NCI-H460 lung = test system: NCI-H460 lung
OVCAR-4 ovarian = test system: OVCAR-4 ovarian
SN12C renal = test system: SN12C renal
U251 CNS = test system: U251 CNS
UO-31 renal = test system: UO-31 renal
HOP-62 NSCLC = test system: HOP-62 NSCLC

Row | Structure (SMILES) | TGI (786-0 renal) [µM] | TGI (HCT-15 colon) [µM] | TGI (K-562 leukemia) [µM] | TGI (KM12 colon) [µM] | TGI (MALME-3M melanoma) [µM] | TGI (NCI-H460 lung) [µM] | TGI (OVCAR-4 ovarian) [µM] | TGI (SN12C renal) [µM] | TGI (U251 CNS) [µM] | TGI (UO-31 renal) [µM] | TGI (HOP-62 NSCLC) [µM] | GI50 (HOP-62 NSCLC) [µM] | GI50 (OVCAR-4 ovarian) [µM] | GI50 (SN12C renal) [µM]
1 | CC(C)(C)N/N=C(\C(=O)NC1=C(Cl)C(=O)c2ccccc2C1=O)C1C=CCS1(=O)=O (stereo not given) | 54 | 22.9 | > 100 | > 100 | 6.44 | 22 | 30.7 | 31.6 | > 100 | 37.7 | – | – | – | –
2 | CCc1c(-c2ccc(OC)cc2)oc(OC)c(C)c1=O | > 100 | > 100 | > 100 | > 100 | – | > 100 | > 100 | > 100 | > 100 | > 100 | > 100 | – | – | –
3 | NC(=O)CC(N=Cc1nc(-c2ccccc2)oc1O)C(=O)O (stereo not given) | > 100 | > 100 | > 100 | > 100 | > 100 | > 100 | > 100 | – | > 100 | > 100 | > 100 | – | – | –
4 | OC1(c2ccc(Cl)cc2)c2ccccc2-c2nc3ccccc3n21 (stereo not given) | > 100 | > 100 | > 100 | > 100 | – | > 100 | > 100 | > 100 | > 100 | > 100 | > 100 | – | – | –
5 | NCCN1C(=O)c2ccccc2C1c1ccc(Cl)cc1 (stereo not given) | > 100 | > 100 | > 100 | > 100 | – | > 100 | > 100 | > 100 | > 100 | > 100 | > 100 | – | – | –
6 | Cc1c2c(n(CC(c3ccccc3)c3ccccc3)c1C)NN=C(C#N)S2(=O)=O | > 100 | > 100 | – | > 100 | – | > 100 | > 100 | > 100 | > 100 | > 100 | > 100 | – | – | –
7 | O=c1[nH]c(=O)n(COCc2ccccc2)cc1Nc1ccc(Br)cc1 | > 100 | > 100 | > 100 | > 100 | – | > 100 | > 100 | > 100 | > 100 | > 100 | 88.7 | – | – | –
8 | CCCCOC(=O)C1CC[C@H]2[C@@H]3CCc4cc(OC(=O)c5cccc6c(=O)c7ccccc7[nH]c56)ccc4[C@H]3CC[C@]12C (stereo not given in full) | 17 | 13.5 | 21.4 | 17 | 18.7 | – | 14.5 | 15.3 | 18.7 | 14.9 | 16.4 | – | – | –
9 | COc1cc(-c2c3c(cc4c2OCO4)[C@@H](Nc2ccc(-c4ccc(-c5ccc(N[C@@H]6c7cc8c(cc7C(c7cc(OC)c(O)c(OC)c7)[C@H]7C(=O)OC[C@H]67)OCO8)cc5)cc4)cc2)[C@H]2COC(=O)[C@@H]2C3)cc(OC)c1O (stereo not given in full) | 6.22 | 4.79 | – | 4.63 | 7.4 | 10.7 | – | 24.4 | 10.1 | 13.1 | 8.81 | – | – | –
10 | C[C@]12CC(c3ccccc3O1)C(C(=O)Nc1nc(C34CC5CC(CC(C5)C3)C4)cs1)C(=O)N2 (stereo not given in full) | > 100 | > 100 | > 100 | > 100 | > 100 | > 100 | > 100 | > 100 | > 100 | – | > 100 | – | – | –
11 | O=C(O)/C=C/c1c[nH]c(=O)[nH]c1=O | – | > 500 | > 500 | > 500 | > 500 | > 500 | > 500 | > 500 | > 500 | > 500 | > 250 | > 250 | > 500 | > 500
12 | COC(=O)C1(SC)C2CCC3C2CCC31 (stereo not given) | > 100 | > 100 | > 100 | – | > 100 | > 100 | > 100 | > 100 | > 100 | > 100 | > 100 | – | – | –
13 | COC1C(N(C)C)=C(c2ccccc2)C(=O)N2CCc3ccccc3C12 (stereo not given) | > 100 | > 100 | – | > 100 | > 100 | – | > 100 | > 100 | > 100 | > 100 | > 100 | – | – | –
14 | C#CCN(Cc1ccc2nc(-c3ccccc3)c(N)nc2c1)c1cc(OC)c(OC)c(OC)c1 | > 100 | > 100 | > 100 | – | 83.3 | 81.1 | > 100 | > 100 | > 100 | 69.3 | > 100 | – | – | –
15 | CCn1c(CCl)nc2c1C(=O)c1ccccc1C2=O | > 100 | 3.19 | > 100 | 3.23 | 2.41 | 3.9 | 3.08 | 2.97 | 3.12 | – | 4.95 | – | – | –
